This passage reports RP-LC retention time results from the METLIN SMRT retention time set (Domingo-Almenara et al. 2019).

Each structure is given as a SMILES string.

This series can be described thus: gradient 5% acetonitrile 3 min, to 50% in 2 min, to 85% in 15 min, held 3 min, 100 µL/min. Particulars: column: Zorbax Extend-C18 2.1 x 50 mm; eluents: water / acetonitrile, 0.1% formic acid. In outline: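 Mixtures of ~100 pure standards were chromatographed on a Zorbax Extend-C18 column (2.1 × 50 mm, 1.8 μm) at 100 μL/min using water and acetonitrile, each with 0.1% formic acid. Detection used a quadrupole time-of-flight mass spectrometer in positive and negative ionization mode, and data collection spanned 3 months. Retention time was obtained from adduct peaks picked computationally and each checked manually.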
As to `CCC1CCCCN1CCCNC(=O)C1CCCN(c2nccnc2Sc2ccccc2)C1` (stereo not given), the RP-LC retention time is 714 s. As to `CCCS(=O)(=O)c1nc2ccc(NS(=O)(=O)c3cc(OC)ccc3OC)cc2s1`, the RP-LC retention time is 909 s.

Consider `CCn1cc(CCN2CCC(C(=O)N(C)C)CC2)c2cccnc21`, for which the RP-LC retention time is 566 s. For the molecule `CS(=O)(=O)N1CCc2cc(C(=O)N3CCC(C(N)=O)CC3)ccc21`, the RP-LC retention time turned out to be 583 s.

`O=C(Nc1ccc2c(c1)OCO2)NC1CCCC(OC(=O)Nc2ccc(F)cc2)C1` (stereo not given) had an RP-LC retention time of 825 s. In turn, `COc1ccc(-c2cn3c(CC(=O)Nc4ccccc4OC)csc3n2)cc1` yielded an RP-LC retention time of 748 s. `c1csc(Cc2nc(-c3ccc4c(c3)ncn4CCN3CCCCC3)no2)c1` gave an RP-LC retention time of 646 s. The result for `CC(=O)N1CCc2cc(N3CC(C(=O)NCc4cc(C)ccc4C)CC3=O)ccc21` (stereo not given) reads 742 s; that for `OCCN(Cc1ccccc1)CC(O)COc1ccc(Cl)cc1Cl` (stereo not given), 602 s; that for `COc1ccc(-c2noc(-c3ccc(N4CCN(c5cccc(OC)c5)CC4)nc3)n2)cc1`, 1340 s. `Cc1nnc(NC(=O)CSc2cc(N3CCCC3)ncn2)s1`: the RP-LC retention time turned out to be 577 s. Turning to `CN(CCO)c1cc(N2CCN(c3ccccn3)CC2)c2noc3c2c1C(=O)c1ccccc1-3`, the RP-LC retention time was 614 s. As for `O=C(C1=NN(CCc2ccccc2)c2cc(Cl)ccc2S1(=O)=O)N1CCOCC1`, the RP-LC retention time was found to be 906 s.

`COc1ccc(-c2noc(Cn3ccnc3C)n2)cc1` came in with an RP-LC retention time of 611 s. For the molecule `Cc1cc(C(=O)Nc2nc3c(s2)CN(C(=O)c2cnn(-c4ccccc4)c2C)CC3)no1`, the RP-LC retention time was determined as 712 s. As to `CCn1c(C(=O)NCCCN2CCOCC2)cc2c(-c3cccs3)nn(-c3ccccc3)c21`, the RP-LC retention time is 705 s. On to `CCNc1cc(N2CCC(CCC(=O)Nc3ccc(OC)c(OC)c3)CC2)ncn1`, for which the RP-LC retention time was 614 s. The molecule `CCc1nc2cc(N3CCCC(C(=O)N4CCC5(CC4)OCCO5)C3)cnc2nc1CC` (stereo not given) returned an RP-LC retention time of 769 s. For `COc1ccccc1NC(=O)Cn1c(C(F)(F)F)nc2cc3c(cc21)OCCO3`, the RP-LC retention time stood at 886 s. For `CCOCC(=O)N1CC(F)(F)C[C@H]1c1nc(C2CC2)no1`, the RP-LC retention time was 746 s.

With `CCN1C(=O)c2cccnc2Sc2cc(NC(=O)C(C)C)ccc21`, the RP-LC retention time is 711 s. `COc1ccc(-c2nnc(-c3ccccc3)o2)cc1S(=O)(=O)NC(C)(C)C` returned an RP-LC retention time of 955 s. For `O=c1[nH]cc(S(=O)(=O)N2CCCC2)c(=O)[nH]1`, the RP-LC retention time came out at 568 s. The molecule `CCn1ccc(C(=O)N2CC(c3nc(C4CC4)no3)C3(CCN(C)CC3)C2)n1` (stereo not given) displayed an RP-LC retention time of 586 s. The molecule `CCc1csc(-c2ccc(N3CCN(C(=O)c4cccs4)CC3)nc2)n1` returned an RP-LC retention time of 900 s. For the molecule `CC(=O)N1CCc2cc(N3CC(C(=O)NCc4ccc(F)cc4)CC3=O)ccc21` (stereo not given), the RP-LC retention time turned out to be 740 s. Consider `CC(=O)Nc1cccc(-c2nc(-c3ccc4c(c3)oc(=O)n4C)no2)c1`, for which the RP-LC retention time came out at 819 s. As to `COc1ccc(-c2nc(-c3cccc(-c4ccn[nH]4)c3)no2)cc1`, the RP-LC retention time turned out to be 1000 s.

Molecule `CC(C)c1ccc(Nc2c(-c3ccc(O)cc3)nc3ncccn23)cc1` displayed an RP-LC retention time of 713 s. On to `CCN1CCN(C(=O)C2CCN(S(=O)(=O)c3c(C)nn(-c4ccc(F)cc4)c3C)CC2)CC1`, for which the RP-LC retention time came to 641 s.

The molecule `COc1ccccc1-c1c(C(F)(F)F)oc2cc(OC(=O)C3CC3)ccc2c1=O` came in with an RP-LC retention time of 1080 s.

Consider `O=C1C(Br)=Cc2cccc3cccc1c23`, for which the RP-LC retention time was 996 s. With `O=C(NCc1cccnc1Oc1ccccc1)c1ccco1`, the RP-LC retention time is 685 s.

For the molecule `O=C(Cc1cccs1)Nc1cccc(OCc2nnc(-c3ccccc3)o2)c1`, the RP-LC retention time worked out at 905 s. In turn, `NC(=O)CSc1nnc(N2CCN(C(=O)c3ccccc3Cl)CC2)s1` yielded an RP-LC retention time of 596 s. Under `Cn1c(N2CCN(C(=O)Cc3ccc(Cl)cc3)CC2)cc(=O)n(C)c1=O` stands 677 s; under `CCOc1cc(=O)n2c(c1C(=O)OCc1ccccc1F)CCCCC2`, 914 s. Molecule `CCC(C(=O)Nc1cnn(-c2ncc(N(C)C)cn2)c1)c1ccccc1` (stereo not given) showed an RP-LC retention time of 811 s.

On to `CCOC(=O)c1nc(N2CCN(c3ccccc3)CC2)c2ccccc2n1`, for which the RP-LC retention time was 893 s. The result for `O=S(=O)(Cc1ccccc1F)N1CCC(c2noc(-c3cccnc3)n2)C1` (stereo not given) reads 826 s; that for `COC(=O)c1c(NC(=O)c2cc3ccccc3c(=O)o2)sc2c1CCCC2`, 748 s; that for `CCOc1ccc(-c2noc(CN3N=NC4C(=O)N(c5ccc(F)cc5)C(=O)C43)n2)cc1OC` (stereo not given), 936 s. As to `Cc1ccccc1-c1csc2c(=O)n(CC(=O)OC(C)(C)C)cnc12`, the RP-LC retention time turned out to be 1060 s.

With `CCCNC(=O)C1CCCN(c2ccc(SCC(=O)Nc3cccc(SC)c3)nn2)C1` (stereo not given), the RP-LC retention time turned out to be 693 s. On to `CC(C)(C)C(=O)NCCN1C(=O)C2(CCCCC2)C1c1ccccc1` (stereo not given), for which the RP-LC retention time is 903 s. `O=C(N1CCC(n2nc(-c3ccsc3)ccc2=O)CC1)C1(c2ccccc2)CC1` had an RP-LC retention time of 869 s. Under `COc1cccc(-c2nnc(Cc3nc(-c4ccc(Br)cc4)no3)o2)c1` stands 1100 s.

For `COCCCn1cnc2c(-c3ccccc3)cn(CC(=O)NCc3ccco3)c2c1=O`, the RP-LC retention time was 802 s. In the case of `CCCCNC(=O)c1nc(Nc2ccc(F)cc2)c2ccccc2n1`, the RP-LC retention time turned out to be 796 s. For `Cc1cc2n(n1)CCC(=O)N2CCCC(=O)NCCCN1CCCC(C)C1` (stereo not given), the RP-LC retention time was determined as 570 s. Turning to `Cc1nc(OCC(=O)NCc2ccc(N(C)C)cc2)c2c(C)c(C)oc2n1`, the RP-LC retention time is 653 s. On to `Cc1sc(C)c(S(=O)(=O)N2CCN(c3ccccc3F)CC2)c1-c1cc(C(F)(F)F)on1`, for which the RP-LC retention time stood at 1330 s. Under `Cc1ccc(-c2csc(NC(=O)COc3ccc(Cl)cc3Cl)n2)cc1` stands 1180 s; under `COc1ccccc1CNC(=O)c1c(C)sc2ccn(CC(C)C)c(=O)c12`, 989 s; under `O=C(Nc1ccc(Br)cc1)C1CCCN(c2ccnc(-c3ccc(F)cc3)n2)C1` (stereo not given), 775 s. Regarding `Cc1nnc(-c2cn(CC(=O)Nc3ccccc3F)c3ccccc23)o1`, the RP-LC retention time is 799 s.

For the molecule `CC(C)CNC(=O)CCn1c(=O)c2ccccc2n2c(=O)n(Cc3ccccc3F)nc12`, the RP-LC retention time was 879 s. Turning to `CCOc1ccc(S(=O)(=O)N2CCCC(C(=O)NC3CCCCCC3)C2)cc1` (stereo not given), the RP-LC retention time is 1060 s. The result for `Cc1cc(C)n(Cc2nc(-c3ccc(NC(=O)Cc4ccccc4F)cc3)oc2C)n1` reads 915 s; that for `CCNC(=O)NCCC1CCN(S(=O)(=O)c2ccc(F)cc2)CC1`, 728 s.

For the molecule `COc1ccc2[nH]c(=O)c(CCC(=O)NCc3cccs3)cc2c1`, the RP-LC retention time amounted to 805 s. Molecule `COc1cc(CNC(=O)c2ccc(Cc3c(C)noc3C)o2)cc(OC)c1OC` displayed an RP-LC retention time of 744 s. Under `COCCNC(=O)C1CCN(c2cnc(N3CCCCCC3)nc2)CC1` stands 617 s; under `O=C(NCC1CC1)c1cn(-c2ccc(NC(=O)C3CC3)cn2)cn1`, 651 s. `Cc1ccc(NC(=O)N2CCCC(Cn3c(C4CC4)nc4cccnc43)C2)cc1F` (stereo not given) registered an RP-LC retention time of 717 s. On to `CNC(=O)C1CCCN(c2nc3ncn(CC(=O)Nc4cc(Cl)ccc4C)c(=O)c3s2)C1` (stereo not given), for which the RP-LC retention time was 669 s. The molecule `Cc1cccc(NC(=O)N2CCN(Cc3cn(C)c4ccccc34)CC2)c1` gave an RP-LC retention time of 681 s. `COc1ccc(CNC(=O)C2CCN(C(=O)C3Sc4ccccc4NC3=O)CC2)cc1` (stereo not given) returned an RP-LC retention time of 731 s. As for `COc1cccc(Nc2nc3ccncc3n(C(C)C)c2=O)c1`, the RP-LC retention time amounted to 680 s. `CCC(C(=O)NCCCN1CCCC1)n1nc(C)c2nn(-c3ccccc3)c(C)c2c1=O` (stereo not given) returned an RP-LC retention time of 645 s. Under `O=C(c1cc2ccccc2[nH]1)N1CCN(C(=O)c2ccc(Br)o2)CC1` stands 797 s; under `O=C(c1ccccc1OCC1CCCN(C2CCC2)C1)N1CCCC1` (stereo not given), 615 s. On to `COCCN1C(=O)c2ccccc2C(C(=O)Nc2cccnc2)C1c1cccs1` (stereo not given), for which the RP-LC retention time was 581 s. The molecule `CCCNC(=O)C1CCCN(c2ccc(SCC(=O)Nc3c(C)cccc3Cl)nn2)C1` (stereo not given) showed an RP-LC retention time of 655 s.

In turn, `COc1ccc(-c2nnc(Cc3nc(-c4cccnc4)no3)o2)cc1` yielded an RP-LC retention time of 755 s.

Take `CCS(=O)(=O)N1CC(=O)N(c2ccc(C)c(F)c2)C(C)(C(=O)NC2CCCCCC2)C1` (stereo not given): the RP-LC retention time was determined as 968 s.

With `O=C(NCc1ccccn1)C(=O)Nc1ccc2c(c1)OCO2`, the RP-LC retention time was 579 s.

The molecule `Cc1nnc(NC(=O)CSc2ccc(-c3sc(-c4cccnc4)nc3C)nn2)s1` registered an RP-LC retention time of 622 s. Consider `Cc1cc(C)cc(Nc2c(-c3ccc(C(=O)O)cc3)nc3cnccn23)c1`, for which the RP-LC retention time stood at 779 s. The result for `COc1ccc(CNC(=O)Nc2ccc(-c3nc(-c4ccc(C)cc4C)co3)cc2)cc1` reads 1180 s.
